Data on five molecules can be found in patent US7824914B2, “Flavonoids-rich tissues from Neomarica gracilis and methods for culturing the same” (Tatung Company, priority 2006, dated 2010).

Common to all, as to assay type: cell-based, Neomarica gracilis
In assay [1] the test system is N. gracilis rhizome tissue. Briefly: Effect of plant growth regulators on N. gracilis rhizome tissue growth and tectorigenin content in flask culture. As to the method: (2) To determine the effect of plant growth regulators (PGR), sprouts from liquid cultured N. gracilis rhizome tissue were removed with a scalpel. The rhizome tissue was inoculated at an inoculum weight of 3% (g F.W./50 ml) in culture medium containing MS basic medium supplemented with PGRs as shown in Table 2. The culture medium was changed every two weeks. The cultured tissue was weighted at each medium change for a total of eight weeks.
N. gracilis rhizome tissue was frozen at −80° C. for 10 hours, dried in a refrigerated vacuum drier (VirTis Freezemobile 12XL) overnight, and grinded. 0.5 g of dried and grinded tissue was suspended in adequate amount of methanol in a 10 ml flask, […] incubated at 60° C. with ultrasonic vibration for 1 hour, and cooled. Methanol was then added to the suspension to a final volume of 10 ml. The suspension was filtered with Whatman No. 1 filter paper. The filtered solution was sealed in brown sample vials and placed in cold room for future experiments.
(§1) The tectorigenin content of the tissue extract was determined by HPLC analysis using a Cosmosil 5 C18-AR-II column (5 μm, 4.6×250 mm), a Lichrospher® 100 RP-18e Guard column (45×4.6 mm, 5 μm, Merck), a Degasser (ERC-3415α) Pump, a Waters 600E Autosampler and Injector (Schambeck SGD GmbH S5200), a Waters TM 486 UV/VIS Detector, and an Integrator (SISC Xunhua Ltd.). The analysis was performed using a methanol:H2O (0.1% Acetic acid) ratio of 55:45, a flowrate of 0.8 ml/min, and a detection wavelength of 265 nm. The tectorigenin peak of the standard appeared at about 13 min appear.
N. gracilis rhizome tissue was inoculated at an inoculum weight of 3% (g F.W./[…]) in culture medium containing MS supplemented with various amount of PGRs (Table 2). The culture medium was changed and the fresh weight of the tissues was measured every two weeks. Significant increases in fresh weight were observed during 6-8 weeks of culture (FIG. 3).

The test system of assay [2] is N. gracilis rhizome tissue. The assay is described as follows: Effect of ancymidol on sprout formation and tectorigenin content of cultured rhizome tissue. As to the method:
(4) To determine ancymidol's effect on sprout formation and tectorigenin content, liquid cultured N. gracilis rhizome tissue was inoculated at an inoculum weight of 3% (g F.W./100 ml) to a subculture medium containing MS, 0.5 mg/L BA, 0.1 mg/L 2,4-D and 0.84 mg/L NAA. At day 7 and 14 of the culture, sterilely filtered (0.2 um) ancymidol was added to the culture medium to a final concentration of 0.5, 1.0, or 2.0 mg/L. The growth of the tissue was monitored and the tectorigenin content analyzed.
as §1
Liquid cultured N. gracilis rhizome tissue was inoculated at an inoculum weight of 3% (g F.W./100 ml) to a subculture medium containing MS, 0.5 mg/L BA, 0.1 mg/L 2,4-D and 0.84 mg/L NAA. At day 7 and 14 of the culture, sterilely filtered (0.2 um) ancymidol was added to the culture medium to a final concentration of 0.5, 1.0, or 2.0 mg/L. The growth of the tissue was monitored and the tectorigenin content analyzed.

Assay [3] has as its system N. gracilis rhizome tissue. The assay is described as follows: Effect of inoculum weight and PGRs on tissue growth in TIS culture. As to conditions: 1 mg/L kinetin, inoculum weight 1.5 g, 30 days. As to the method:
(1) To determine the effect of the inoculation weight on tissue growth, the TIS culture chamber was divided into four areas. Liquid cultured N. gracilis rhizome tissue was inoculated at 1.5, 3, 6 and 9 g in each area. The culture medium was an MS medium supplemented with PGR as described in samples T12, T17 and T18 of Table 3. The tissues were cultured under conditions detailed in the Plantima® user's manual and immersed for two minutes every three hours. The cultured tissue was weighted and the medium replaced every ten days.
The TIS culture chamber was divided into four areas and liquid cultured N. gracilis rhizome tissue was inoculated at an inoculum weight of 1.5, 3, 6 and 9 g in each area. The culture medium was MS medium supplemented with PGR as described in samples TI2, TI7 and TI8 of Table 3. The cultured tissue was weighted every ten days. […] All other inoculum weights/PGR combinations led to slower growth (FIG. 7).

Assay [4] relates to N. gracilis rhizome tissue. The assay is described as follows: Effect of PGRs on growth and tectorigenin content in TIS culture. As to conditions: for Growth rate: (Final F.W. − Initial F.W.)/Initial F.W.; for F.W. / Tectorigenin: week 4. As to the method: (2) To determine the effect of PLRs on the grows of N. gracilis and the tectorigenin content influence, ten pieces of liquid cultured N. gracilis rhizome tissue were inoculated in culture media containing MS and PGRs described in samples MS0, TI3, TI4, TI5 and TI6 of Table 3. The culture media were replaced on week 2 and the tissues were harvested on week 4 and analyzed for tectorigenin content.
as §1
To determine the effect of PGRs on the tectorigenin content, ten pieces of liquid cultured N. gracilis rhizome tissue (1.5 g each) were inoculated in culture media containing MS and PGRs described in samples MS0, TI3, TI4, TI5 and TI6 of Table 3. The tissues were harvested on week 4 and analyzed for tectorigenin content.

The subject of assay [5] is N. gracilis rhizome tissue. The assay is described as follows: Tectorigenin content during growth of rhizome tissue in flask culture (weekly for 8 weeks). As to conditions: 0.1 mg/L NAA, week 1, flask culture. The protocol: (3) To determining the growth curve of N. gracilis rhizome tissue and the tectorigenin content, sprouts from liquid cultured N. gracilis rhizome tissues were removed with a scalpel. The rhizome tissue was inoculated at an inoculum weight (g F.W./50 ml) in culture medium containing the MS basic medium supplemented with 0.1 mg/L NAA or a mixture of 1 mg/L NAA and 1.0 mg/L 2,4-D. The tissues were weighted and analyzed for tectorigenin content every week for eight consecutive weeks.
as §1
Rhizome tissue was inoculated at an inoculum weight of 3% (g F.W./50 ml) in culture medium containing MS basic medium supplemented with 0.1 mg/L NAA or a mixture of 1 mg/L NAA and 1.0 mg/l 2,4-D. The tissues were weighted and analyzed for tectorigenin content every week for eight consecutive weeks.

Setting [6] is: 2,4-D 0.1 mg/l, NAA 0, 8 weeks flask culture.
Setting [7] is: 2,4-D 1.0 mg/l, NAA 0, 8 weeks flask culture.
[8] abbreviates: IAA 0.1 mg/L, Kinetin 0, 8 weeks flask culture.
The mark [9] stands for this setting: IAA 0.5 mg/L, Kinetin 0, 8 weeks flask culture.
[10] abbreviates: IAA 1 mg/L, Kinetin 0, 8 weeks flask culture.
[11] abbreviates: NAA 0.1 mg/l, 2,4-D 0, 8 weeks flask culture.
The mark [12] stands for this setting: NAA 0.5 mg/l, 2,4-D 0, 8 weeks flask culture.
[13] abbreviates: NAA 1.0 mg/l, 2,4-D 0, 8 weeks flask culture.
Setting [14] is: NAA 2.0 mg/l, 2,4-D 0, 8 weeks flask culture.

Several values for one entry are separate records, joined by “and”; a condition that tells them apart may be missing. Equal entries are not always repeated.

For `O=C(O)COc1ccc(Cl)cc1Cl` [2,4-D, 2,4-dichlorophenoxyacetic acid], in assay [1] (setting [6]), the Dry weight amounted to 0.92 ± 0.15 bc g and the Tectorigenin is on record as 38.9 ± 1.17 cd mg/kg D.W. In assay [1] (setting [7]), the Dry weight is listed as 1.17 ± 0.21 ab g and the Tectorigenin came to 36.7 ± 0.33 cd mg/kg D.W.

`COc1ccc(C(O)(c2cncnc2)C2CC2)cc1` (stereo not shown) [Ancymidol, ancymidol]: the “effect on tectorigenin content (in words)” value in assay [2] (0.5 or 2.0 mg/L added on day 14) is reported as “reduced tectorigenin content”; in assay [2] (added on day 7), “did not affect the tectorigenin content”. Further, the Tectorigenin in assay [2] (Ancymidol 0.5 mg/L added day 7, 3 weeks of culture) is on record as 28.31 ± 0.11 b mg/kg D.W; in assay [2] (Ancymidol 0.5 mg/L added day 14, 3 weeks of culture), 18.59 ± 0.07 c mg/kg D.W; in assay [2] (Ancymidol 1.0 mg/L added day 7, 3 weeks of culture), 27.74 ± 0.08 b mg/kg D.W; in assay [2] (Ancymidol 1.0 mg/L added day 14, 3 weeks of culture), 30.81 ± 0.35 a mg/kg D.W; in assay [2] (Ancymidol 2.0 mg/L added day 7, 3 weeks of culture), 35.65 ± 0.18 a mg/kg D.W; in assay [2] (Ancymidol 2.0 mg/L added day 14, 3 weeks of culture), 13.36 ± 0.13 d mg/kg D.W. Moreover, the “sprout formation (morphology)” value in assay [2] (added on day 7) is reported as “significant reduction of sprout formation”.

Regarding `O=C(O)Cc1c[nH]c2ccccc12` [IAA, indole-3-acetic acid], the Dry weight in assay [1] (setting [8]) was 1.26 ± 0.22 b g; in assay [1] (setting [9]) it was 1.02 ± 0.11 bc g; in assay [1] (setting [10]) it was 1.70 ± 0.08 a g. The Tectorigenin was 11.8 ± 8.4 b mg/kg D.W in assay [1] (setting [8]); 37.6±4.9 mg/kg D.W. and 37.6 ± 4.9 a mg/kg D.W in assay [1] (setting [9]); 29.0 ± 0.29 c mg/kg D.W in assay [1] (setting [10]).

Consider `c1coc(CNc2ncnc3[nH]cnc23)c1` [Kinetin, kinetin], for which, in assay [3], the fresh weight was 6.76 ± 0.33 g and the “fresh weight as fold of the inoculum weight” value came out at 4.5 fold. In addition, the “change of tectorigenin content (in words)” value in assay [1] (flask culture, 8 weeks) was “did not result in any increase in the tectorigenin content”. In assay [4] (Kinetin 1.0 mg/l), this molecule came in with a Growth rate of 2.07 ± 0.15, a F.W. of 46.12 ± 2.18 g and a Tectorigenin of 10 ± 0.15 mg/kg D.W.

Consider `O=C(O)Cc1cccc2ccccc12` [NAA, α-naphthaleneacetic acid], for which the “tectorigenin content (highest, during week 1)” value in assay [5] worked out at 56±2.82 mg/kg D.W. Further, the Dry weight in assay [1] (setting [11]) was 1.39 ± 0.32 a g; in assay [1] (setting [12]) it was 1.03 ± 0.31 bc g; in assay [1] (setting [13]) it was 1.05 ± 0.20 bc g; in assay [1] (setting [14]), 0.75 ± 0.02 cd g. Besides, the Tectorigenin in assay [1] (setting [11]) was 55.5±0.67 mg/kg D.W. and 55.5 ± 0.67 ab mg/kg D.W; in assay [1] (setting [12]), 59.9±0.23 mg/kg D.W. and 58.9±0.23 mg/kg D.W. and 58.9 ± 0.23 ab mg/kg D.W; in assay [1] (setting [13]), 49.0 ± 0.81 bc mg/kg D.W; in assay [1] (setting [14]), 9.4 ± 0.22 e mg/kg D.W; in assay [4] (NAA 0.1 mg/l) it was 38 ± 0.57 mg/kg D.W; in assay [4] (NAA 0.5 mg/l), 33 ± 0.38 mg/kg D.W. The Growth rate is reported as 1.71 ± 0.14 in assay [4] (NAA 0.1 mg/l) and 1.10 ± 0.21 in assay [4] (NAA 0.5 mg/l). Moreover, the F.W. in assay [4] (NAA 0.1 mg/l) came out at 40.65 ± 2.09 g; in assay [4] (NAA 0.5 mg/l), 31.47 ± 3.12 g.
